In general, IC50 refers to the concentration that gives 50% inhibition.

The text below walks through data of article PMC6274503, “Chemical Constituents of Muehlenbeckia tamnifolia (Kunth) Meisn (Polygonaceae) and Its In Vitro α-Amilase and α-Glucosidase Inhibitory Activities” (Molecules, 2016).

Test [1] has as its target α-glucosidase from Saccharomyces cerevisiae. Nature of the test: α-glucosidase inhibition assay (p-NPG substrate, pNP release over 60 min). Type of test: biochemical. The settings on record: for IC50: compounds and acarbose, max concentration tested 1 mM, '-' = no inhibitory activity at maximum dose tested.
Procedure: (§1) The α-amylase and α-glucosidase assays were evaluated using α-amylase from porcine pancreas (Type IV-B, Sigma A3176, St. Louis, MO, USA) and α-glucosidase from Saccharomyces cerevisiae (Tipe I, Sigma G5003, St. Louis, MO, USA). Starch was used as substrate for α-amylase and p-Nitrophenyl-α-D-glucopiranoside (p-NPG-Sigma, N1377) was used as substrate for α-glucosidase. For both enzymatic tests, a microplate reader (EPOCH 2, Biotek Instruments Inc. Winoosky, VT, USA) was used.
α-Glucosidase inhibitory activity was determined using a 96-well microtiter plate with p-nitrophenyl-α-D-glucopyranoside as the substrate, according to the method describe by Tao et al. [32], with slight modifications. Sample solutions were prepared by dissolving 10 mg in 1 mL MeOH:H2O (50:50). Several dilutions in PBS were made in case of getting complete enzyme inhibition. First, 75 μL of PBS (SIGMA-P4417) was mixed with 5 μL of the sample and 20 μL of the enzyme solution (0.15 U/mL in PBS pH 7.4), then it was pre-incubated at 37 °C for 5 min prior to the initiation of the reaction by adding the substrate. After pre-incubation, 20 μL of PNPG (5 mM in phosphate buffer, pH 7.4) was added and then incubated at 37 °C. […] The results were expressed as inhibition percentage by means of the formula described by Choi et al. [33] as follows: (2) Inhibition (%)=[(Ao−As)/Ao]×100 where A0 is the absorbance recorded for the enzymatic activity without inhibitor (control), and As is the absorbance recorded for the enzymatic activity in presence of the inhibitor (sample). IC50 value was calculated by curve fitting of data (GraphPad Prism 5.0).
For test [2], the target named is T1, α-amylase from porcine pancreas (Sus scrofa, UniProt P00690).
T1 sequence (P00690 16-511): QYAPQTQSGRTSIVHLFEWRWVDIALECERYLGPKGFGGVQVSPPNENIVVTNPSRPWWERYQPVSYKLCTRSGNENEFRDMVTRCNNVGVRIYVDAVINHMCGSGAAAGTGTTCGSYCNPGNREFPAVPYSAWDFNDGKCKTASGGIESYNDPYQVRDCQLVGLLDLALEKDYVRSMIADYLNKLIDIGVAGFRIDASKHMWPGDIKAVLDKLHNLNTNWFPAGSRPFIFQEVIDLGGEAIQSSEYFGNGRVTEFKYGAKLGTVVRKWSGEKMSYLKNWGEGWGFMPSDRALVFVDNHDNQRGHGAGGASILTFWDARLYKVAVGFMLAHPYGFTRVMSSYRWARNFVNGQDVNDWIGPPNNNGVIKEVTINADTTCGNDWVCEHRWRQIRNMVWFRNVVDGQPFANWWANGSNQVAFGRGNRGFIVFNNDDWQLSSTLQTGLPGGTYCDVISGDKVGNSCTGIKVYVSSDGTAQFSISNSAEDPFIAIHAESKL
Nature of the test: α-amylase inhibitory activity (starch-iodine method). Type of test: biochemical.
Procedure: as §1
The inhibitory activity is measured according to the method reported by Xiao et al. [30] with slight modifications. […] Starch solution was prepared by dissolving 1 g in 50 mL of 0.4 M NaOH and heated for 5 min at 100 °C. After cooling in iced water, the solution pH was adjusted to 7 with 2 M HCl and H2O was added to complete 100 mL. Sample solutions were prepared by dissolving 10 mg in 1 mL MeOH:H2O (50:50). Several dilutions in PBS (SIGMA-P4417) were made in case of getting complete enzyme inhibition. PBS solution (35 μL), substrate (35 μL) and sample (5 μL) solutions were mixed in a 96-well microtiter plate, and the mixture was pre-incubated at 37 °C for 1 min. Then, 20 μL of a 50 μg/mL α-amylase solution was added to each well. The plate was incubated for 15 min. […] The absorbance was measured in a microplate reader (EPOCH 2, Biotek Instruments Inc. Winoosky, VT, USA) at 580 nm. Inhibitory activity (%) was calculated according to the formula described by Kusano et al. [31] as follows: (1) Inhibition (%)=[1−(ABS2−ABS1)/(ABS4−ABS3)×100] where ABS1 is the absorbance of the incubated solution containing sample, starch and amylase, ABS2 is the absorbance of incubated solution containing sample and starch, ABS3 is the absorbance of incubated solution containing starch and amylase, and ABS4 is the absorbance of incubated solution containing starch. IC50 value was calculated by curve fitting of data (GraphPad Prism 5.0, GraphPad Software, Inc., La Jolla, CA, USA).

The mark [3] stands for this setting: compounds and acarbose; max concentration tested 1 mM; '-' = inactive at maximum dose tested (<35% inhibition); read-out: IC50 α-amylase.
[4] abbreviates: read-out: IC50 α-amylase; compounds and acarbose; max concentration tested 1 mM; '-' = inactive at maximum dose tested (<35% inhibition).

Like-named read-outs stand apart in the source and are kept apart here.

As for `C=C(C)[C@@H]1CC[C@]2(C)CC[C@]3(C)[C@H](CC[C@@H]4[C@@]5(C)CC[C@H](OC(C)=O)C(C)(C)[C@@H]5CC[C@]43C)[C@@H]12` [Compound 1, Lupeol acetate], the figures for the IC50 in test [1] and in test [2] (setting [3]) were above 41.7 µM and above 62.5 µM, respectively.
The matching figures for `Oc1cc(O)c2c(c1)O[C@H](c1ccc(O)c(O)c1)[C@@H](O)C2` [Compound 7, (+)-Catechin]: 5.5 µM and above 62.5 µM.
Take `O=C(O)/C=C\c1ccc(O)cc1` [Compound 2, Cis-p-coumaric acid]: the values for the half-maximal inhibitory concentration (IC50) in test [1] and in test [2] (setting [4]) were above 41.7 µM and above 62.5 µM, respectively.
As to `C=C(C)[C@@H]1CC[C@]2(C)CC[C@]3(C)[C@H](CC[C@@H]4[C@@]5(C)CC[C@H](O)C(C)(C)[C@@H]5CC[C@]43C)[C@@H]12` [Compound 3, Lupeol], the IC50 in test [1] was above 41.7 µM; in test [2] (setting [3]), above 62.5 µM.
The matching figures for `CCCCC/C=C\C/C=C\CCCCCCCC(=O)O` [Compound 6, Linoleic acid]: 0.42 µM and above 62.5 µM.
The corresponding values for `CC[C@H](CC[C@@H](C)[C@H]1CC[C@H]2[C@@H]3CC=C4C[C@@H](O)CC[C@]4(C)[C@H]3CC[C@]12C)C(C)C` [Compound 4, β-Sitosterol] are above 41.7 µM and above 62.5 µM.
For `O=C(O)/C=C/c1ccc(O)cc1` [Compound 5, Trans-p-coumaric acid], in test [1] (at the maximum dose tested (1 mM for compounds)), the “enzyme inhibition (α-glucosidase)” value is recorded as 27%. Also, the IC50 was above 41.7 µM in test [1] and above 62.5 µM in test [2] (setting [4]).
Take `C[C@@H]1O[C@@H](Oc2c(-c3ccc(O)c(O)c3)oc3cc(O)cc(O)c3c2=O)[C@H](O)[C@H](O)[C@H]1O` [Compound 9, Quercitrin]: the IC50 in test [1] was 7.77 µM; in test [2] (setting [4]), above 62.5 µM.
